Test results published in publication PMC9019904, “AD Informer Set: Chemical tools to facilitate Alzheimer's disease drug discovery” (Alzheimer's & Dementia : Translational Research & Clinical …, 2022).
In brackets after ≈: the same amount, converted by molar mass. Read-outs that look alike come from different tables or passages of the source.

Key:
[1] = tested on: BV2 (mouse microglia) cell line; experiment: pHrodo-myelin phagocytosis/cell viability high content imaging assay: phagocytosis signal; format: cell-based
Outline: (§1)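 High content imaging, roughly 22 hours post pHrodo-myelin addition, recorded phagocytosis signal alongside viability in microglial lines BV2 (mouse) and HMC3 (human). Apoptosis tracked through intensity rise (early) and fall (later) among three extracted measurements.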

cellular system = settings: published cellular activity at 10 μM; cited from earlier work
physchem = settings: pH 7.4, aqueous buffer, kinetic from dmso stock
[2] = tested on: protein product expressed by the gene target; settings: cited from earlier work
[3] = Kinetic solubility in aqueous buffer pH 7.4 by total chemiluminescent nitrogen determination (Analiza); settings: aqueous buffer, pH 7.4, aqueous buffer, kinetic from dmso stock
[4] = tested on: BV2 (mouse microglia) cell line; experiment: pHrodo-myelin phagocytosis/cell viability high content imaging assay: viability (cell count, nuclear area, nuclear intensity)
Outline: (§2)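 Viability was read as total cell count per well by high-content imaging, with mean average nuclear intensity per cell profiling apoptosis (rise early, fall late). Compounds were given at 10 μM for 48 h, pHrodo-myelin being added for the final 20 h. Values are means of two points as % untreated control.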

[5] = tested on: HMC3 (human microglia) cell line; experiment: as above; settings: HMC3 cells
Outline: as §2

[6] = tested on: HMC3 (human microglia) cell line; experiment: pHrodo-myelin phagocytosis/cell viability high content imaging assay: phagocytosis signal; format: cell-based
Outline: as §1

[7] = BV2 cells, cell count <70% control
[8] = gene target APP, ref PubMed 22323718
[9] = BV2 cells, 10 uM compound, 48 hours treatment
[10] = 10 uM compound, 48 hours treatment

CC[C@H](C)[C@H](N)C(=O)NCCN1CCOCC1.Cl.Cl [LM11A-31 dihydrochloride]
Stimulation of mouse microglial phagocytosis at 10 μM (>150% control) ([1]; BV2 cells, 10 μM): Y (The compound was found to stimulate phagocytosis (response threshold: >150% control) when murine immortalized microglial cells were dosed at 10 μM (Y: yes))
Reported as cell active (<10 μM) (cellular system): Y (Published data supports that the compound is active in a cellular system when dosed at 10 μM (Y/N))
solubility kinetic (physchem): 178 µM

O=C(N/N=C/c1ccc(Cl)cc1)c1ccccc1 [Compound 1e]
Reported on-target biochemical potency ([2]; gene target CTSH, ref PubMed 25181676): 440 nM
solubility kinetic [3]: 37.8 µM (≈ 9.78 µg/mL)

CN1C(=N)N[C@](C)(c2cc(NC(=O)c3ccc(F)cn3)ccc2F)CS1(=O)=O [Verubecestat (MK-8931)]
Reported on-target biochemical potency (nM): BACE1 ([2]; gene target BACE1, ref PubMed 27418961, 27023706): 1.8 nM
Reported on-target biochemical potency (nM): BACE2 ([2]; gene target BACE2, ref PubMed 27418961, 27023706): 0.37 nM
solubility kinetic [3]: 154 µM (≈ 63.3 µg/mL)

COc1nc(OCc2cccc(-c3ccccc3)c2C)ccc1CNCCNC(C)=O.Cl [BMS-202]
Mouse microglial cytotoxicity at 10 μM (<70% control) [4, 7]: Y (The compound was found to be cytotoxic (cell count threshold: <70% control) when murine immortalized microglial cells were dosed at 10 μM (Y: yes))
Human microglial cytotoxicity at 10 μM (<70% control) ([5]; 10 μM, cell count <70% control): Y (The compound was found to be cytotoxic (cell count threshold: <70% control) when human immortalized microglial cells were dosed at 10 μM (Y: yes))
Inhibition of mouse microglial phagocytosis at 10 μM (<70% control) ([1]; BV2 cells, 10 μM): Y (The compound was found to inhibit phagocytosis (response threshold: <70% control) when murine immortalized microglial cells were dosed at 10 μM (Y: yes))
Inhibition of human microglial phagocytosis at 10 μM (<70% control) ([6]; HMC3 cells, 10 μM): Y (The compound was found to inhibit phagocytosis (response threshold: <70% control) when human immortalized microglial cells were dosed at 10 μM (Y: yes))
Reported as cell active (<10 μM) (cellular system): Y (Published data supports that the compound is active in a cellular system when dosed at 10 μM (Y/N))
solubility kinetic (physchem): 97.9 µM

O=c1ncn2nc(Sc3ccc(F)cc3F)ccc2c1-c1c(Cl)cccc1Cl [Neflamapimod (VX-745)]
Stimulation of mouse microglial phagocytosis at 10 μM (>150% control) ([1]; 10 μM, BV2): Y (The compound was found to stimulate phagocytosis (response threshold: >150% control) when murine immortalized microglial cells were dosed at 10 μM (Y: yes))
Reported on-target biochemical potency ([2]; target MAPK11, ref PubMed 24900264): 220 nM
Reported on-target biochemical potency ([2]; target MAPK14, ref PubMed 24900264): 10 nM
solubility kinetic [3]: 48.1 µM (≈ 21 µg/mL)

Cc1ccc(S(=O)(=O)O)cc1.Nc1n[nH]cc1-c1cc(Cl)ccc1Oc1cc(F)c(S(=O)(=O)Nc2cscn2)cc1Cl [PF-05089771]
Reported as cell active (<10 μM) (cellular system): Y (Published data supports that the compound is active in a cellular system when dosed at 10 μM (Y/N))
solubility kinetic (physchem): 76.4 µM

NC(=O)[C@@H]1CC[C@H](c2ccc(OCc3ccccc3F)cc2)N1 [Raxatrigine]
Stimulation of mouse microglial phagocytosis at 10 μM (>150% control) ([1]; BV2 cells, 10 μM): Y (The compound was found to stimulate phagocytosis (response threshold: >150% control) when murine immortalized microglial cells were dosed at 10 μM (Y: yes))
Reported as cell active (<10 μM) (cellular system): Y (Published data supports that the compound is active in a cellular system when dosed at 10 μM (Y/N))
solubility kinetic (physchem): 178 µM (≈ 55.9 µg/mL)

CCOC(=O)N1c2ccc(C(F)(F)F)cc2[C@@H](N(Cc2cc(C(F)(F)F)cc(C(F)(F)F)c2)C(=O)OC)C[C@H]1CC [Torcetrapib]
Reported on-target biochemical potency ([2]; gene target CETP, ref Probe Miner, PubMed 17984165, 19164467): 7.72 nM
solubility kinetic [3]: < 1.1 µM

Cc1cc(Nc2nc(N[C@@H](C)c3ncc(F)cn3)ncc2Cl)n[nH]1 [AZD-1480]
Mouse microglial cytotoxicity at 10 μM (<70% control) [4, 7]: Y (The compound was found to be cytotoxic (cell count threshold: <70% control) when murine immortalized microglial cells were dosed at 10 μM (Y: yes))
Stimulation of mouse microglial phagocytosis at 10 μM (>150% control) ([1]; BV2 cells, 10 μM): Y (The compound was found to stimulate phagocytosis (response threshold: >150% control) when murine immortalized microglial cells were dosed at 10 μM (Y: yes))
Reported as cell active (<10 μM) (cellular system): Y (Published data supports that the compound is active in a cellular system when dosed at 10 μM (Y/N))
solubility kinetic (physchem): 141 µM (≈ 49 µg/mL)

O=C(Nc1ccc([N+](=O)[O-])cc1Cl)c1cc(Cl)ccc1O [Niclosamide]
Inhibition of human microglial phagocytosis at 10 μM (<70% control) ([6]; HMC3 cells, 10 μM): Y (The compound was found to inhibit phagocytosis (response threshold: <70% control) when human immortalized microglial cells were dosed at 10 μM (Y: yes))
Reported as cell active (<10 μM) (cellular system): Y (Published data supports that the compound is active in a cellular system when dosed at 10 μM (Y/N))
solubility kinetic (physchem): 17.5 µM (≈ 5.72 µg/mL)

O=c1[nH]c2ccccc2n1C1CCN(CCCC(c2ccc(F)cc2)c2ccc(F)cc2)CC1 [Pimozide]
Reported as cell active (<10 μM) (cellular system): Y (Published data supports that the compound is active in a cellular system when dosed at 10 μM (Y/N))
solubility kinetic (physchem): 2.9 µM (≈ 1.34 µg/mL)

CC(C)[C@H](O)C(=O)N[C@@H](C)C(=O)N[C@@H]1C(=O)N(C)CCc2ccccc21 [Semagacestat (LY450139)]
Stimulation of mouse microglial phagocytosis at 10 μM (>150% control) ([1]; BV2, 10 μM): Y (The compound was found to stimulate phagocytosis (response threshold: >150% control) when murine immortalized microglial cells were dosed at 10 μM (Y: yes))
Reported on-target biochemical potency (nM): Aβ38 [2, 8]: 12 nM
Reported on-target biochemical potency (nM): Aβ40 [2, 8]: 12.1 nM
Reported on-target biochemical potency (nM): Aβ42 [2, 8]: 10.9 nM
solubility kinetic [3]: 176 µM (≈ 63.8 µg/mL)

Cl.O=C(NCCCNc1nc(Nc2cccc(CN3CCOCC3)c2)ncc1C1CC1)C1CCC1 [UNC10302867A, reference compound]
Mouse microglial cytotoxicity at 10 μM (<70% control) ([4]; BV2): Y (The compound was found to be cytotoxic (cell count threshold: <70% control) when murine immortalized microglial cells were dosed at 10 μM (Y: yes))
1. Cell count (% control) [4, 9]: 17.6 % control
2. Nuclear Area (% Control) [4, 9]: 154.0 % Control
3. Nuclear DNA Intensity (% control) [4, 9]: 122.3 % control
1. Cell count (% control) [5, 10]: 81.1 % control
2. Nuclear Area (% Control) [5, 10]: 129.3 % Control
3. Nuclear DNA Intensity (% control) [5, 10]: 124.9 % control
Stimulation of mouse microglial phagocytosis at 10 μM (>150% control) ([1]; 10 μM, BV2): Y (The compound was found to stimulate phagocytosis (response threshold: >150% control) when murine immortalized microglial cells were dosed at 10 μM (Y: yes))
phagocytosis in mouse microglial cells (< 70% control inhibition, > 150% control stimulation) ([1]; BV2, 10 μM, pHrodo-myelin): stimulator of phagocytosis
4. Phagocytosis (% control) ([1]; BV2 cells, 10 uM compound, 48 hours treatment, pHrodo-myelin final 20 hours): 282.0 % control
Stimulation of human microglial phagocytosis at 10 μM (>150% control) ([6]; 10 μM, HMC3): Y (The compound was found to stimulate phagocytosis (response threshold: >150% control) when human immortalized microglial cells were dosed at 10 μM (Y: yes))
phagocytosis in human microglial cells (< 70% control inhibition, > 150% control stimulation) ([6]; HMC3, 10 μM, pHrodo-myelin): stimulator of phagocytosis
4. Phagocytosis (% control) ([6]; HMC3 cells, 10 uM compound, 48 hours treatment, pHrodo-myelin final 20 hours): 290.0 % control
solubility kinetic (physchem): 119 µM

N#CC(CCCN1CCN(/N=C/c2cccnc2)CC1)(c1ccccc1)c1ccccc1 [SC-26196]
Reported on-target biochemical potency ([2]; gene target FADS2, ref PubMed 18719641, 23112819, 10419129): 200 nM
solubility kinetic [3]: 1.9 µM (≈ 0.805 µg/mL)

CCN(CC)Cc1ccc(C(=O)N(CCc2ccccc2OC)[C@@H]2CCNC2)cc1.Cl.Cl [PF429242]
Stimulation of mouse microglial phagocytosis at 10 μM (>150% control) ([1]; BV2 cells, 10 μM): Y (The compound was found to stimulate phagocytosis (response threshold: >150% control) when murine immortalized microglial cells were dosed at 10 μM (Y: yes))
Inhibition of human microglial phagocytosis at 10 μM (<70% control) ([6]; HMC3 cells, 10 μM): Y (The compound was found to inhibit phagocytosis (response threshold: <70% control) when human immortalized microglial cells were dosed at 10 μM (Y: yes))
Reported as cell active (<10 μM) (cellular system): Y (Published data supports that the compound is active in a cellular system when dosed at 10 μM (Y/N))
solubility kinetic (physchem): 131 µM

Cl.NC(=O)c1cnc(N[C@@H]2CCCC[C@@H]2N)nc1Nc1cccc(-n2nccn2)c1 [P505-15 (PRT06207 HCl)]
Inhibition of mouse microglial phagocytosis at 10 μM (<70% control) ([1]; BV2 cells, 10 μM): Y (The compound was found to inhibit phagocytosis (response threshold: <70% control) when murine immortalized microglial cells were dosed at 10 μM (Y: yes))
Inhibition of human microglial phagocytosis at 10 μM (<70% control) ([6]; HMC3 cells, 10 μM): Y (The compound was found to inhibit phagocytosis (response threshold: <70% control) when human immortalized microglial cells were dosed at 10 μM (Y: yes))
Reported as cell active (<10 μM) (cellular system): Y (Published data supports that the compound is active in a cellular system when dosed at 10 μM (Y/N))
solubility kinetic (physchem): 118 µM

Cc1cc(SCc2sc(-c3ccc(C(F)(F)F)c(F)c3)nc2C)ccc1OCC(=O)O [GW0742]
Reported as cell active (<10 μM) (cellular system): Y (Published data supports that the compound is active in a cellular system when dosed at 10 μM (Y/N))
solubility kinetic (physchem): 145 µM (≈ 68.3 µg/mL)
